Test results as given in patent US12089595B2, “Pseudomonas strains and their metabolites to control plant diseases” (T3 Bioscience, Inc., priority 2020, dated 2024).
Values after ≈ are worked out from the molar mass of the structure shown.

Tested on: Ralstonia solanacearum Pss4
Experiment: microbe, parasite or virus in culture
Type: cell-based
Conditions: PSS4, Ralstonia solanacearum Pss4 (bacterial wilt)

[H]/N=C(/N)N[C@H]1[C@H](O)[C@@H](O)[C@H](O[C@@H]2O[C@@H](C)[C@](O)(C=O)[C@H]2O[C@@H]2O[C@@H](CO)[C@H](O)[C@@H](O)[C@@H]2NC)[C@@H](N/C(N)=N\[H])[C@@H]1O [Streptomycin, reference compound]
MIC: 12.5 µg/mL (≈ 21.5 µM)
